Source: paper PMC7534383, “Structure-activity relationship of 7-aryl-2-anilino-pyrrolopyrimidines as Mer and Axl tyrosine kinase inhibitors” (Journal of Enzyme Inhibition and Medicinal Chemistry, 2020)
Entries after “also recorded” stand apart in the source; their conditions may differ. Where two headings read alike, the source gives them in different places.

Tests used:
Mer = conditions: Figure 1, known TAM kinase inhibitors; cited from earlier work
MERTK = target: T1, MERTK (Homo sapiens, UniProt Q12866); experiment: Kinase assay at Km ATP (Eurofins Discovery), Mer; assay type: biochemical; conditions: Km ATP, read-out: IC50 (nM) MER
T1 sequence (Q12866 21-999): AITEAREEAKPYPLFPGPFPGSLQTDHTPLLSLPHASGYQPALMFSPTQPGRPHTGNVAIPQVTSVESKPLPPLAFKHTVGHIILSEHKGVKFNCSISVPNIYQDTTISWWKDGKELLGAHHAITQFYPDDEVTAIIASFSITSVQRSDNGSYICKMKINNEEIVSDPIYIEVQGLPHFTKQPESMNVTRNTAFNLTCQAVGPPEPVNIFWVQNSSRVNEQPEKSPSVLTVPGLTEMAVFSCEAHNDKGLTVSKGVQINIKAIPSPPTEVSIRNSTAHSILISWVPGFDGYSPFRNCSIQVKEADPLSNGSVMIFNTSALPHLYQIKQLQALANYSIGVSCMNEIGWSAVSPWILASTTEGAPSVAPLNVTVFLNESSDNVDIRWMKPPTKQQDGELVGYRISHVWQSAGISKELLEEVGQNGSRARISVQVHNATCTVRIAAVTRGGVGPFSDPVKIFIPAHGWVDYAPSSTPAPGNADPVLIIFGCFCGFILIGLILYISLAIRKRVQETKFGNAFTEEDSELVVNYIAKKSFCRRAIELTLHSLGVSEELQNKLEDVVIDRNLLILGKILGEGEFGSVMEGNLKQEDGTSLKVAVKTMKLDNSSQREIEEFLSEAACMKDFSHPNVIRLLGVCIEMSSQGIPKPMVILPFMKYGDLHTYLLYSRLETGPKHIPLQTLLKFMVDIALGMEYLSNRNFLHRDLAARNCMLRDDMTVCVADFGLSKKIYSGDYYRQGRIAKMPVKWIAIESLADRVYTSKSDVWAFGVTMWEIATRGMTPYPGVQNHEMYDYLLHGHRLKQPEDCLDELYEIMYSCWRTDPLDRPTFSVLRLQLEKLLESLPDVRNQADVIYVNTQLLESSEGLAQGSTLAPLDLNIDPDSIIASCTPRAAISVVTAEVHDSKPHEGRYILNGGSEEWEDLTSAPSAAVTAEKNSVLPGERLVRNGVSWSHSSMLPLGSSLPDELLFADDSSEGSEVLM
Experimental: (§1) All kinase assays were carried out at Km ATP by Eurofins Discovery's Kinase Screening and Profiling services (France).

[1] = test system: Mer phosphorylation in Mer-overexpressed human gastric cancer cell line MKN28; experiment: Western blot of Mer phosphorylation in MKN28 cells; assay type: cell-based; conditions: 0.5 and 0.1 μM, 1.5 h, UNC2025 positive control
Experimental: MKN28 cells were obtained from the Korea Institute of Science and Technology (KIST). Cells were cultured in Roswell Park Memorial Institute (RPMI) 1640 medium containing 10% fetal bovine serum and 1% penicillin/streptomycin at 37 °C with 5% CO2 under a humidified atmosphere.
MKN 28 cells (500,000 cells/2 ml) were seeded in each well of 6-well plates and incubated for 24 h. Then, the cells were treated with 20 µL of DMSO stock solution of the corresponding compounds and incubated for a further 1.5 h. After that, the cells were washed with cold Dulbecco's Phosphate-Buffered Saline (DPBS) twice and lysed with RIPA buffer supplemented with protease inhibitor and phosphatase inhibitor cocktails on ice. Equal amounts of protein samples were boiled with 5× SDS-PAGE loading buffer and separated by 10% SDS-PAGE gels, then transferred onto polyvinylidene difluoride (PVDF) membranes. The membranes were blocked with 5% BSA in 1× TBST (1× TBS with 0.1% Tween-20) for 1 h and incubated at 4 °C overnight with a 1:1000 dilution of the following primary antibodies in blocking buffer: pMer (Tyr749 + 753 + 754, ab14921), Mer (CST, # 4319), and ß-actin (SC, # SC-47778). […]
Figure 3. […] Bar graph represents the relative intensities of the total and phosphorylated Mer as determined by band densitometry using image analysis software.

AXL = target: T2, AXL (Homo sapiens, UniProt P30530); experiment: Kinase assay at Km ATP (Eurofins Discovery), Axl; assay type: biochemical; conditions: Km ATP
T2 sequence (P30530 26-894): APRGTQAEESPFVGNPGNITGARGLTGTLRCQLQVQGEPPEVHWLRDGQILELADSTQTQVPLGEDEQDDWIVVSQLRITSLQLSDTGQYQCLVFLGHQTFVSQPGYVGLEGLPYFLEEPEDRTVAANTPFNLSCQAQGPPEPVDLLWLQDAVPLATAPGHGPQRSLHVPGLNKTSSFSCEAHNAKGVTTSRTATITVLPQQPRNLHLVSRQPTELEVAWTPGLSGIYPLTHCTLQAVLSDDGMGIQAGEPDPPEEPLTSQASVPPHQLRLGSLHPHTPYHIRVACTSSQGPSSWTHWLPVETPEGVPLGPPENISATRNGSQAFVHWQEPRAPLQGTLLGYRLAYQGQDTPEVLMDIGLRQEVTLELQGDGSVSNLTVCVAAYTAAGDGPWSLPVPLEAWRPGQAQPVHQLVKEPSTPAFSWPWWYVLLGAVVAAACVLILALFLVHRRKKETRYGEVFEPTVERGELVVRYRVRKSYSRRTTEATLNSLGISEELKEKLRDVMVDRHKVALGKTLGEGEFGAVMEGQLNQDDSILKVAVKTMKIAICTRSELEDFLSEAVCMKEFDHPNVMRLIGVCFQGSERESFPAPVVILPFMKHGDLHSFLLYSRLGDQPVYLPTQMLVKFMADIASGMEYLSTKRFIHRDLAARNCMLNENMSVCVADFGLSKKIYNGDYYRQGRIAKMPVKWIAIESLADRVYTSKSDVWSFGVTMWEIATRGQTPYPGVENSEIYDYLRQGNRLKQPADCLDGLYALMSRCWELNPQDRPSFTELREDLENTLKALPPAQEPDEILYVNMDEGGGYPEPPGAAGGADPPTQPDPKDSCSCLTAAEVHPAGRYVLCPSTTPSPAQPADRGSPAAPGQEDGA
Experimental: as §1

TYRO3 [2] = target: T3, TYRO3 (Homo sapiens, UniProt Q06418); experiment: Kinase assay at Km ATP (Eurofins Discovery), Tyro3; assay type: biochemical
T3 sequence (Q06418 41-890): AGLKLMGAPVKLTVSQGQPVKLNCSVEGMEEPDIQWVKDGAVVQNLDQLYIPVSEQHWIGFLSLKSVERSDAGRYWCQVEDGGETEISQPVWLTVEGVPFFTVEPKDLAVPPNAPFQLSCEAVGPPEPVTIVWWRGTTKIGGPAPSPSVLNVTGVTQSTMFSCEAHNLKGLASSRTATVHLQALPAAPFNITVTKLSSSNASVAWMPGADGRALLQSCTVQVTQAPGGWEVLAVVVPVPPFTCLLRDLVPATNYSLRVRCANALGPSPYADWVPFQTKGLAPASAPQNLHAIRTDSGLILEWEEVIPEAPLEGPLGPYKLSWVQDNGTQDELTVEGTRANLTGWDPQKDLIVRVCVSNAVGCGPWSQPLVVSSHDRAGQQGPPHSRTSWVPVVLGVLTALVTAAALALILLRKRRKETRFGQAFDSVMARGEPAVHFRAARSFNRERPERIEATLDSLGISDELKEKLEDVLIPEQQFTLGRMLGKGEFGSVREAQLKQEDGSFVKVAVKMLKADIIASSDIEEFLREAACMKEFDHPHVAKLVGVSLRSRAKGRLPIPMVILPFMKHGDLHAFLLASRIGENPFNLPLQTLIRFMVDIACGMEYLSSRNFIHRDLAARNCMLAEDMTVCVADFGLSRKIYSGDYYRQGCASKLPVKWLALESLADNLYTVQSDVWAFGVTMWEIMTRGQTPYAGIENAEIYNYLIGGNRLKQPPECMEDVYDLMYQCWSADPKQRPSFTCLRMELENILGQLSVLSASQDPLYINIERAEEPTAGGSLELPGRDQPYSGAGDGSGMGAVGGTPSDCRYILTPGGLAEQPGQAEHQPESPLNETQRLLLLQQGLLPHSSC
Experimental: as §1

TYRO3 [3] = target: T3, TYRO3; conditions: Figure 1, known TAM kinase inhibitors; cited from earlier work

| SMILES | IC50 (Mer) | IC50 (MERTK; Table 2) | IC50 (AXL; Table 2) | inhibition at 1 µM (TYRO3 [2]) | other results |
| --- | --- | --- | --- | --- | --- |
| COc1ccc(-n2ccc3cnc(Nc4cc(OC)cc(N5CCC(N6CCCC6)CC5)c4)nc32)cc1 [Compound 27, N-(3-Methoxy-5–(4-(pyrrolidin-1-yl)piperidin-1-yl)phenyl)-7–(4-methoxyphenyl)-7H-pyrrolo[2,3-d]pyrimidin-2-amine] | – | 2 nM | 16 nM | 40% | Inhibitory effect on Mer phosphorylation [1]: better effect on blocking phosphorylation than UNC2025; also recorded: considerable inhibition for Mer phosphorylation in cells |
| COc1cc(Nc2ncc3ccn(-c4ccc(OC(F)(F)F)cc4)c3n2)cc(N2CCC(N3CCCC3)CC2)c1 [Compound 33, N-(3-Methoxy-5–(4-(pyrrolidin-1-yl)piperidin-1-yl)phenyl)-7–(4-(trifluoromethoxy)phenyl)-7H-pyrrolo[2,3-d]pyrimidin-2-amine] | – | – | – | 23% | IC50 (MERTK; Table 3): 9 nM; IC50 (AXL; Table 3): 57 nM |
| COc1ccc(-n2ccc3cnc(Nc4cc(OC)cc(N5CCC6(CCCC6)CC5)c4)nc32)cc1 [Compound 31, N-(3-Methoxy-5–(8-azaspiro[4.5]decan-8-yl)phenyl)-7–(4-methoxyphenyl)-7H-pyrrolo[2,3-d]pyrimidin-2-amine] | – | > 3000 nM | > 3000 nM | 4% | – |
| CCOc1ccn(-c2ccc(F)cc2)c(=O)c1C(=O)Nc1ccc(Oc2ccnc(N)c2Cl)c(F)c1 [BMS-777607] | 14 nM | – | – | – | IC50 (TYRO3 [3]): 4 nM |
